Reference: paper PMC8071274 (International Journal of Molecular Sciences, 2021)
Entries after “also recorded” stand apart in the source; their conditions may differ. Each block holds one compound with its values, some of them ahead of it. Where a SMILES comes first, the peptide text is derived from it. Where no end group is shown, it is not given here. The star is where a group is joined. For = O=C*

What was measured:
mouse serum = conditions: Male C57BL/6JJcl mice, 37 °C, up to 48 h
[1] = test system: differentiated HL-60 cells; format: cell-based, human; conditions: 72 h
Protocol: HEK-293 cells (American Type Culture Collection, Manassas, VA, USA) were maintained in DMEM (Thermo Fisher Scientific, Waltham, MA, USA) containing 10% FBS (Thermo Fisher Scientific) in a humidified atmosphere at 5% CO2 and 37 °C. Human acute leukemia-derived HL-60 cells (RIKEN Cell Bank, Ibaraki, Japan) were cultured in RPMI-1640 medium (Thermo Fisher Scientific) containing 10% FBS in a humidified atmosphere at 5% CO2 and 37 °C. HL-60 cells were treated with 500 μM dibutyryl-cAMP (Sigma-Aldrich, St. Louis, MO, USA) for 72 h to differentiate the cells into neutrophilic/granulocytic cells as described elsewhere. The ability of MCT-2-related peptides to activate HL-60 cells differentiated into neutrophilic/granulocytic cells was evaluated by stimulation of β-hexosaminidase secretion from the cells. Briefly, differentiated HL-60 cells were washed 3 times with ice-cold HEPES-buffered Hank’s solution (HBHS; 10 mM HEPES, 136.9 mM NaCl, 5.4 mM KCl, 1.2 mM CaCl2, 0.44 mM KH2PO4, 0.49 mM MgCl2, 0.41 mM MgSO4, 0.34 mM Na2HPO4, 5.5 mM glucose, 4.2 mM NaHCO3, and 0.1% BSA, pH 7.4). The cells were resuspended in HBHS at a density of 5.6 × 10^6 cells/mL, and DNase I (Sigma-Aldrich) and cytochalasin B (Sigma-Aldrich) were each added at a final concentration of 5 μg/mL. The cell suspension in each tube (5.0 × 10^5 cells/90 μL) was preincubated at 37 °C for 10 min and stimulated with 10 μL synthetic peptide solution at 37 °C for 10 min. The inhibitory effects of inhibitors against FPR1 [CysH (Sigma-Aldrich)] and FPR2 [PBP10 (Tocris Bioscience, Bristol, UK)] on β-hexosaminidase release induced by MCT-2 and its derivatives were also evaluated in the differentiated HL-60 cells; each cell suspension prepared as above (90 μL) was transferred to a tube (5.0 × 10^5 cells/tube) with 5 μL inhibitor solution for FPR1 (CysH) or FPR2 (PBP10). Each tube was then preincubated at 37 °C for 10 min and stimulated with 5 μL synthetic peptide solution at 37 °C for 10 min. After stimulation, 200 μL ice-cold reaction quenching buffer (25 mM Tris, 123 mM NaCl, and 2.7 mM KCl, pH 7.4) was added to each cell suspension to stop the reaction. Thereafter, these tubes were centrifuged at 4 °C and 2300× g for 1 min, and each supernatant was transferred into a new tube. β-Hexosaminidase activity in the supernatant was measured as described previously. Briefly, 90 μL supernatant was transferred to each well of a 96-well microtiter plate, and 60 μL of a substrate solution for β-hexosaminidase [10 mM p-nitrophenyl N-acetyl-β-D-glucosaminide (Sigma-Aldrich), 40 mM citrate, and 70 mM NaHPO4, pH 4.5] was added to initiate the enzyme reaction. After incubation of the plate at 37 °C for 1 h, 100 μL of 400 mM glycine (pH 10.7) was added to stop the reaction. The absorbance at 415 nm for the resulting p-nitrophenol and at 490 nm for the reference was measured using a microtiter plate reader (Viento XS; BioTek Instruments, Winooski, VT, USA). The ability of each peptide to induce β-hexosaminidase release was expressed as a percentage of enzyme secretion promoted by 10 μM MCT-2(1–15) that induced the maximum response for the elucidation of full or partial agonists to the activity of MCT-2(1–15) (Figure 2 and Figure 4, Table 2) or a percentage of the total enzyme activity, which was the enzyme activity released after disruption of the cells with 0.05% Triton X-100 (Figure 3).

[2] = Time-dependent alteration of molecular forms of MCT-2(1–15) in mouse serum (RP-HPLC, MALDI-TOF-MS); format: in vitro ADME; conditions: 37 °C; for time of maximum amount of the degradation product in serum: RP-HPLC, MALDI-TOF-MS
Protocol: Male C57BL/6JJcl mice, 12–14 weeks of age, weighing 25–30 g, were anesthetized (50 mg/kg pentobarbital), and blood was collected from the caudal vena cava and stored overnight at 4 °C. The blood sample was centrifuged at 4 °C and 20,000× g for 20 min, and the supernatant was transferred to a new tube as mouse serum and stored at −80 °C. MCT-2(1–15) was incubated in mouse serum at a final concentration of 500 μM at 37 °C, and aliquots (100 μL) were collected from the incubation mixture after 0, 1, 2, 4, 24, and 48 h. These aliquots were mixed with TCA (final concentration: 3% w/v) and kept on ice for 30 min to precipitate denatured proteins. The samples were centrifuged at 4 °C and 13,000× g for 15 min, and the supernatants were analyzed by RP-HPLC on a C18 column (4.6 × 150 mm, Cosmosil; Nacalai Tesque, Inc.). RP-HPLC peaks that contained MCT-2(1–15) and its derivative peptides were analyzed by MALDI-TOF-MS to identify their molecular forms.

[3] = product formed from 500 μM MCT-2(1–15) in mouse serum
[4] = product formed from 500 μM MCT-2(1–15) in mouse serum, 4 h

EC50 [1]: 1.8 ± 0.173 µM
time of first detection of the degradation product in serum [2, 3]: 1 h
presence of the degradation product in serum at 4 h [2, 4]: not found
time of maximum amount of the degradation product in serum [2, 3]: 2 h
Compound: CC[C@H](C)[C@H](NC(=O)[C@H](CCCCN)NC(=O)[C@H](CCCNC(=N)N)NC(=O)[C@H](CCSC)NC(=O)[C@@H]1CCCN1C(=O)[C@@H](NC(=O)[C@H](CCSC)NC=O)[C@@H](C)O)C(=O)N[C@@H](CC(N)=O)C(=O)N1CCC[C@H]1C(=O)N[C@@H](CC(C)C)C(=O)O [MCT-2(1–10)] (For-MTPMRKINPL-OH)

EC50 [1]: 0.02 ± 0.00339 µM
metabolised at 1 h, 500 μM ([2]; male, C57BL/6JJcl, mouse serum, 500 μM peptide, 1 h, TCA precipitation, RP-HPLC (214 nm), read-out: reduction of amount of peptide in serum at 1 h): ~50%
metabolised at 2 h, 500 μM ([2]; male, C57BL/6JJcl, mouse serum, 500 μM peptide, 2 h, TCA precipitation, RP-HPLC (214 nm), read-out: reduction of amount of peptide in serum at 2 h): ~80%
half-life at 500 μM ([2]; male, C57BL/6JJcl, mouse serum, 500 μM peptide, RP-HPLC (214 nm)): ~1 h
peptide remaining in serum at 4 h ([2]; mouse serum, 500 μM peptide, 4 h, RP-HPLC (214 nm)): completely disappeared
Compound: CC[C@H](C)[C@H](NC(=O)[C@H](CC(C)C)NC(=O)[C@H](CCCCN)NC(=O)[C@H](CCSC)NC(=O)[C@H](CC(C)C)NC(=O)[C@@H]1CCCN1C(=O)[C@H](CC(N)=O)NC(=O)[C@@H](NC(=O)[C@H](CCCCN)NC(=O)[C@H](CCCNC(=N)N)NC(=O)[C@H](CCSC)NC(=O)[C@@H]1CCCN1C(=O)[C@@H](NC(=O)[C@H](CCSC)NC=O)[C@@H](C)O)[C@@H](C)CC)C(=O)N[C@@H](CC(N)=O)C(=O)O [MCT-2(1–15), Mitocryptide-2] (For-MTPMRKINPLMKLIN-OH)

EC50 [1]: 41.3 µM
Compound: CC[C@H](C)[C@H](NC(=O)[C@H](CCCCN)NC(=O)[C@H](CCCNC(=N)N)NC(=O)[C@H](CCSC)NC(=O)[C@@H]1CCCN1C(=O)[C@@H](NC(=O)[C@H](CCSC)NC=O)[C@@H](C)O)C(=O)N[C@@H](CC(N)=O)C(=O)O [MCT-2(1–8)] (For-MTPMRKIN-OH)

EC50 [1]: 0.0123 ± 0.00029 µM
Compound: CC[C@H](C)[C@H](NC(=O)[C@H](CC(C)C)NC(=O)[C@H](C)NC(=O)[C@H](CCSC)NC(=O)[C@H](CC(C)C)NC(=O)[C@@H]1CCCN1C(=O)[C@H](CC(N)=O)NC(=O)[C@@H](NC(=O)[C@H](CCCCN)NC(=O)[C@H](CCCNC(=N)N)NC(=O)[C@H](CCSC)NC(=O)[C@@H]1CCCN1C(=O)[C@@H](NC(=O)[C@H](CCSC)NC=O)[C@@H](C)O)[C@@H](C)CC)C(=O)N[C@@H](CC(N)=O)C(=O)O [[Ala^12]MCT-2] (For-MTPMRKINPLMALIN-OH)

EC50 [1]: 203 µM
Compound: CSCC[C@H](NC=O)C(=O)N[C@H](C(=O)N1CCC[C@H]1C(=O)N[C@@H](CCSC)C(=O)N[C@@H](CCCNC(=N)N)C(=O)N[C@@H](CCCCN)C(=O)O)[C@@H](C)O [MCT-2(1–6)] (For-MTPMRK-OH)

EC50 [1]: 0.633 ± 0.153 µM
Compound: CC[C@H](C)[C@H](NC(=O)[C@H](CCCCN)NC(=O)[C@H](CCCNC(=N)N)NC(=O)[C@H](CCSC)NC(=O)[C@@H]1CCCN1C(=O)[C@@H](NC(=O)[C@H](CCSC)NC=O)[C@@H](C)O)C(=O)N[C@@H](CC(N)=O)C(=O)N1CCC[C@H]1C(=O)N[C@@H](CC(C)C)C(=O)N[C@@H](CCSC)C(=O)N[C@@H](CCCCN)C(=O)O [MCT-2(1–12)] (For-MTPMRKINPLMK-OH)

EC50 [1]: 0.0293 ± 0.00149 µM
Compound: CC[C@H](C)[C@H](NC(=O)[C@H](CC(C)C)NC(=O)[C@H](CCCCN)NC(=O)[C@H](CCSC)NC(=O)[C@H](CC(C)C)NC(=O)[C@@H]1CCCN1C(=O)[C@H](CC(N)=O)NC(=O)[C@@H](NC(=O)[C@H](CCCCN)NC(=O)[C@H](CCCNC(=N)N)NC(=O)[C@H](CCSC)NC(=O)[C@@H]1CCCN1C(=O)[C@@H](NC(=O)[C@H](CCSC)NC=O)[C@@H](C)O)[C@@H](C)CC)C(=O)N[C@@H](C)C(=O)O [[Ala^15]MCT-2] (For-MTPMRKINPLMKLIA-OH)

The remaining lines, values behind:

Compound: For-MTPMRKINPLMKLIN
fragment found (mouse serum): MCT-2(1–11), 1 h; also recorded: MCT-2(1–10), 1 h; also recorded: MCT-2(1–4), 1 h

Compound: CSCC[C@H](NC(=O)[C@@H]1CCCN1C(=O)[C@@H](NC(=O)[C@H](CCSC)NC=O)[C@@H](C)O)C(=O)O [MCT-2(1–4)] (For-MTPM-OH)
EC50 [1]: 18 µM
time of first detection of the degradation product in serum [2, 3]: 1 h
time the degradation product was present in serum [2, 3]: more than 48 h
presence of the degradation product in serum at 48 h ([2]; product formed from 500 μM MCT-2(1–15) in mouse serum, 48 h): still present
time of maximum amount of the degradation product in serum [2, 3]: 4 h

Compound: CC[C@H](C)[C@H](NC(=O)[C@H](CCCCN)NC(=O)[C@H](CCCNC(=N)N)NC(=O)[C@H](CCSC)NC(=O)[C@@H]1CCCN1C(=O)[C@@H](NC(=O)[C@H](CCSC)NC=O)[C@@H](C)O)C(=O)N[C@@H](CC(N)=O)C(=O)N1CCC[C@H]1C(=O)N[C@@H](CC(C)C)C(=O)N[C@@H](CCSC)C(=O)O [MCT-2(1–11)] (For-MTPMRKINPLM-OH)
EC50 [1]: 0.547 ± 0.0939 µM
time of first detection of the degradation product in serum [2, 3]: 1 h
presence of the degradation product in serum at 4 h [2, 4]: not found
time of maximum amount of the degradation product in serum [2, 3]: 1 h

Compound: MTPMRKINPLMKLIN [Des-N-formyl MCT-2]
EC50 [1]: > 1000 µM

Compound: CC[C@H](C)[C@H](NC(=O)[C@H](CCCCN)NC(=O)[C@H](CCCNC(=N)N)NC(=O)[C@H](CCSC)NC(=O)[C@@H]1CCCN1C(=O)[C@@H](NC(=O)[C@H](CCSC)NC=O)[C@@H](C)O)C(=O)N[C@@H](CC(N)=O)C(=O)N1CCC[C@H]1C(=O)N[C@@H](CC(C)C)C(=O)N[C@@H](CCSC)C(=O)N[C@@H](CCCCN)C(=O)N[C@@H](CC(C)C)C(=O)O [MCT-2(1–13)] (For-MTPMRKINPLMKL-OH)
EC50 [1]: 0.186 ± 0.0336 µM
